In US20040121316A1 (priority 2002, published 2004):
Like-named read-outs stand apart in the source and are kept apart here.

How the values were obtained:
mutant HIV-1 I84V/L90M = assay: Resistance Evaluation, I84V/L90M fold change; type: cell-based; set-up: scale not given here
[1] = system: wild-type HIV-1 strain IIIB; assay: microbe, parasite or virus in culture; type: cell-based; set-up: scale not given here
[2] = EC50 of mutant I84V/L90M relative to wild type, class symbols
[3] = Human immunodeficiency virus 1, IIIB

SMILES | I84V/L90M fold change (mutant HIV-1 I84V/L90M; mutant I84V/L90M vs wild type) | also measured
COc1ccc(S(=O)(=O)N(CC(C)C)CC(O)C(CNc2ccc(CP(=O)(O)O)cc2)NC(=O)OC2COC3OCCC23)cc1 (stereo not shown) |  | I84V/L90M fold change (mutant HIV-1 I84V/L90M; [2]): + (>3 to ≦10); EC50 [1, 3]: 0.5 to 5 µM
CCOP(=O)(CNc1ccc(CC(NC(=O)OC2COC3OCCC23)C(O)CN(CC(C)C)S(=O)(=O)c2ccc(OC)cc2)cc1)OCC (stereo not shown) |  | I84V/L90M fold change (mutant HIV-1 I84V/L90M; [2]): − (≦3)
COc1ccc(S(=O)(=O)N(CC(C)C)CC(O)C(Cc2ccc(NCP(=O)(OCc3ccccc3)OCc3ccccc3)cc2)NC(=O)OC2COC3OCCC23)cc1 (stereo not shown) |  | I84V/L90M fold change (mutant HIV-1 I84V/L90M; [2]): − (≦3)
COc1ccc(S(=O)(=O)N(CC(C)C)CC(O)C(Cc2ccc(C)cc2)NC(=O)OC2COC3OCCC23)cc1 (stereo not shown) | + (>3 to ≦10) | 
CCOC(=O)C(C)OP(=O)(CN1CC=C(CC(NC(=O)OC2COC3OCCC23)C(O)CN(CC(C)C)S(=O)(=O)c2ccc(OC)cc2)CC1)Oc1ccccc1 (stereo not shown) | − (≦3) | EC50 (nM) [1]: + + +
COc1ccc(S(=O)(=O)N(CC(C)C)CC(O)C(Cc2ccc(OCc3ccccc3)cc2)NC(=O)OC2COC3OCCC23)cc1 (stereo not shown) | − (≦3) | 
COc1ccc(S(=O)(=O)N(CCN2CCOCC2)CC(O)C(Cc2ccc(OCP(=O)(O)O)cc2)NC(=O)OC2COC3OCCC23)cc1 (stereo not shown) | + (>3 to ≦10) | EC50 [1, 3]: > 5 µM
COc1ccc(S(=O)(=O)N(CCN2CCOCC2)CC(O)C(Cc2ccc(OCP(=O)(OCc3ccccc3)OCc3ccccc3)cc2)NC(=O)OC2COC3OCCC23)cc1 (stereo not shown) | + (>3 to ≦10) | 
Cc1cccc(C)c1OCC(=O)NC(Cc1ccc(OCP(=O)(O)O)cc1)C(O)CN(CC(C)C)S(=O)(=O)c1ccc(N)cc1 (stereo not shown) | − (≦3) | EC50 [1, 3]: > 5 µM
Cc1ccc(C(=O)NC(Cc2ccc(OCP(=O)(O)O)cc2)C(O)CN(CC(C)C)S(=O)(=O)c2ccc(N)cc2)cc1O (stereo not shown) | + (>3 to ≦10) | EC50 [1, 3]: > 5 µM
Cc1ccc(C(=O)NC(Cc2ccc(OCP(=O)(OCc3ccccc3)OCc3ccccc3)cc2)C(O)CN(CC(C)C)S(=O)(=O)c2ccc(N)cc2)cc1O (stereo not shown) | + (>3 to ≦10) | 
CC(C)CN(CC(O)C(Cc1ccc(OCP(=O)(O)O)cc1)NC(=O)OC1COC2OCCC12)S(=O)(=O)c1ccc(N)cc1 (stereo not shown) | − (≦3) | EC50 [1, 3]: > 5 µM
CCOP(=O)(COc1ccc(CC(NC(=O)OC2COC3OCCC23)C(O)CN(CC(C)C)S(=O)(=O)c2ccc(N)cc2)cc1)OCC (stereo not shown) | − (≦3) | 
CCOP(=O)(COc1ccc(CC(NC(=O)OC2COC3OCCC23)C(O)CN(CC(C)C)S(=O)(=O)c2ccc([N+](=O)[O-])cc2)cc1)OCC (stereo not shown) | − (≦3) | 
CCNc1ccc(S(=O)(=O)N(CC(C)C)CC(O)C(Cc2ccc(OCP(=O)(OCC)OCC)cc2)NC(=O)OC2COC3OCCC23)cc1 (stereo not shown) | − (≦3) | 
CC(C)CN(CC(O)C(Cc1ccc(OCP(=O)(OCc2ccccc2)OCc2ccccc2)cc1)NC(=O)OC1COC2OCCC12)S(=O)(=O)c1ccc(N)cc1 (stereo not shown) | − (≦3) | 
CC(C)CN(CC(O)C(Cc1ccc(OCP(=O)(O)O)cc1)NC(=O)OC1COC2OCCC12)S(=O)(=O)c1cccc(N)c1 (stereo not shown) | − (≦3) | EC50 [1, 3]: 0.5 to 5 µM
CCOP(=O)(COc1ccc(CC(NC(=O)OC2COC3OCCC23)C(O)CN(CC(C)C)S(=O)(=O)c2cccc(N)c2)cc1)OCC (stereo not shown) | − (≦3) | 
CC(C)CN(CC(O)C(Cc1ccc(OCP(=O)(OCc2ccccc2)OCc2ccccc2)cc1)NC(=O)OC1COC2OCCC12)S(=O)(=O)c1cccc(N)c1 (stereo not shown) | − (≦3) | 
CC(C)CN(CC(O)C(Cc1ccc(OCP(=O)(OCc2ccccc2)OCc2ccccc2)cc1)NC(=O)OC1COC2OCCC12)S(=O)(=O)c1ccccc1 (stereo not shown) | + (>3 to ≦10) | 

SMILES | I84V/L90M fold change (mutant HIV-1 I84V/L90M; mutant I84V/L90M vs wild type) | also measured
CC(C)CN(CC(O)C(Cc1ccc(OCP(=O)(OCc2ccccc2)OCc2ccccc2)cc1)NC(=O)OC1COC2OCCC12)S(=O)(=O)c1ccc(F)cc1 (stereo not shown) | + (>3 to ≦10) | 
CC(C)CN(CC(O)C(Cc1ccc(OCP(=O)(OCc2ccccc2)OCc2ccccc2)cc1)NC(=O)OC1COC2OCCC12)S(=O)(=O)c1ccc(C(F)(F)F)cc1 (stereo not shown) | − (≦3) | 
CC(C)CN(CC(O)C(Cc1ccc(OCP(=O)(OCc2ccccc2)OCc2ccccc2)cc1)NC(=O)OC1COC2OCCC12)S(=O)(=O)c1ccc(C#N)cc1 (stereo not shown) | − (≦3) | 
CCCCOC(=O)C(C)OP(=O)(COc1ccc(C[C@H](NC(=O)O[C@H]2CO[C@H]3OCC[C@H]32)[C@H](O)CN(CC(C)C)S(=O)(=O)c2cccc(N)c2)cc1)Oc1ccccc1 (stereo partly shown) | − (≦3) | EC50 (nM) [1]: + +
CC(C)CN(CC(O)C(Cc1ccccc1)NC(=O)OC1COC2OCCC12)S(=O)(=O)c1ccc(O)cc1 (stereo not shown) | − (≦3) | 
CC(C)CN(CC(O)C(Cc1ccccc1)NC(=O)OC1COC2OCCC12)S(=O)(=O)c1ccc(OCP(=O)(O)O)cc1 (stereo not shown) | − (≦3) | EC50 [1, 3]: 0.5 to 5 µM
CC(C)CN(CC(O)C(Cc1ccccc1)NC(=O)OC1COC2OCCC12)S(=O)(=O)c1cccc(O)c1 (stereo not shown) | + (>3 to ≦10) | 
CC(C)CN(CC(O)C(Cc1ccccc1)NC(=O)OC1COC2OCCC12)S(=O)(=O)c1cccc(OCP(=O)(O)O)c1 (stereo not shown) | + (>3 to ≦10) | 
COc1ccc(S(=O)(=O)N(CC(C)C)CC(O)C(Cc2ccccc2)NC(=O)OC2COC3OCCC23)cc1O (stereo not shown) | − (≦3) | 
COc1ccc(S(=O)(=O)N(CC(C)C)CC(O)C(Cc2ccccc2)NC(=O)OC2COC3OCCC23)cc1OCP(=O)(O)O (stereo not shown) | − (≦3) | 
CCOP(=O)(COc1cc(S(=O)(=O)N(CC(C)C)CC(O)C(Cc2ccccc2)NC(=O)OC2COC3OCCC23)ccc1OC)OCC (stereo not shown) | + (>3 to ≦10) | 
CCOP(=O)(COc1cc(S(=O)(=O)N(CC(C)C)CC(O)C(Cc2ccccc2)NC(=O)OC2COC3OCCC23)ccc1O)OCC (stereo not shown) | − (≦3) | 
CCOC(=O)C(C)NP(=O)(COc1ccc(CC(NC(=O)OC2COC3OCCC23)C(O)CN(CC(C)C)S(=O)(=O)c2ccc(OC)cc2)cc1)OCc1ccccc1 (stereo not shown) [Example 30e] |  | I84V/L90M fold change (mutant HIV-1 I84V/L90M; [2]): − (≦3); EC50 [1, 3]: < 0.05 µM
CCOP(=O)(COc1ccc(S(=O)(=O)N(CC(C)C)CC(O)C(Cc2ccc(N)cc2)NC(=O)OC2COC3OCCC23)cc1)OCC (stereo not shown) [NH2, OEt] | ++ (>10 to ≦30) | EC50 ([1]; read-out: EC50): 0.05 to 0.5 µM
CCOP(=O)(COc1ccc(S(=O)(=O)N(CC(C)C)CC(O)C(Cc2ccc(N(C)C)cc2)NC(=O)OC2COC3OCCC23)cc1)OCC (stereo not shown) [NMe2, OEt] | ++ (>10 to ≦30) | EC50 ([1]; read-out: EC50): < 0.05 µM
CC(C)CN(CC(O)C(Cc1ccc(O)cc1)NC(=O)OC1COC2OCCC12)S(=O)(=O)c1cccc(N)c1 (stereo not shown) [OH, m-NH2] | − (≦3) | EC50 (nM) [1]: + +
CC(C)CN(CC(O)C(Cc1ccc(O)cc1)NC(=O)OC1COC2OCCC12)S(=O)(=O)c1ccc(N)cc1 (stereo not shown) [OH, p-NH2] | − (≦3) | EC50 (nM) [1]: + +
COc1ccc(S(=O)(=O)N(CC(C)C)C[C@@H](O)[C@H](Cc2ccc(OCP(=O)(OCc3ccccc3)OCc3ccccc3)cc2)NC(=O)OC2CCOC2)cc1 (stereo partly shown) [OMe, OBn] | + + | EC50 (nM) [1]: + + +
COc1ccc(S(=O)(=O)N(CC(C)C)CC(O)C(Cc2ccc(OCP(=O)(O)OC(C)C(=O)O)cc2)NC(=O)OC2COC3OCCC23)cc1 [drawing 615 R1=OH R2=(R)Lac-OH] |  | I84V/L90M fold change (mutant HIV-1 I84V/L90M; [2]): − (≦3)
COc1ccc(S(=O)(=O)N(CC(C)C)CC(O)C(CC2=CCN(CCP(=O)(OCc3ccccc3)OCc3ccccc3)CC2)NC(=O)OC2COC3OCCC23)cc1 (stereo not shown) [drawing 630] |  | I84V/L90M fold change (mutant HIV-1 I84V/L90M; [2]): + (>3 to ≦10)
